According to patent US20250074919A1, “Heteroaryl compounds as inhibitors of irak4, compositions and applications thereof” (Accro Bioscience (HK) Limited, priority 2021, published 2025):

Tests used:
[1] = Metabolic stability in human liver microsomes; assay type: in vitro ADME; conditions: for half-life: NADPH, 37° C., read-out: Human microsome (t1/2)
Method: (§1) The appropriate concentrations of microsomes working solutions (0.56 mg/mL) were prepared in potassium phosphate buffer. The test compounds were incubated with Human, SD Rat, CD-1 Mouse and Beagle Dog liver microsomes for 10 min at 37° C. with constant shaking. The reaction was initiated by the addition of nicotinamide adenine dinucleotide phosphate (NADPH) cofactor after a 10 min pre-incubation. At 5, 15, 30, 45, and 60 min, the samples were taken and placed into the stop solution (Cold acetonitrile containing 200 ng/mL tolbutamide and 200 ng/mL labetalol as internal standards). All sampling plates were shaken for 10 min, then centrifuged at 4000 rpm for 20 minutes at 4° C. Each supernatant of bioanalysis plate was sealed and shaken for 10 minutes prior to LC-MS analysis.

[2] = Metabolic stability in dog liver microsomes; assay type: in vitro ADME, Beagle Dog; conditions: for half-life: Beagle dog liver microsomes, NADPH, 37° C., read-out: Dog microsome (t1/2)
Method: as §1

[3] = Metabolic stability in mouse liver microsomes; assay type: in vitro ADME, CD-1 Mouse; conditions: for half-life: CD-1 mouse liver microsomes, NADPH, 37° C., read-out: Mouse microsome (t1/2)
Method: as §1

[4] = target: T1, IRAK4 (Homo sapiens (Human), UniProt Q9NWZ3); experiment: Screening the compounds against IRAK4 with ATP (Caliper, FAM-labeled peptide); assay type: biochemical; conditions: for activity, times better than that of the positive control compound CA4948: IRAK4 kinase inhibition relative to CA4948; for IC50: read-out: IC50 (nM) (10 μM ATP), IRAK4 kinase, 10 μM ATP
T1 sequence (Q9NWZ3 whole entry): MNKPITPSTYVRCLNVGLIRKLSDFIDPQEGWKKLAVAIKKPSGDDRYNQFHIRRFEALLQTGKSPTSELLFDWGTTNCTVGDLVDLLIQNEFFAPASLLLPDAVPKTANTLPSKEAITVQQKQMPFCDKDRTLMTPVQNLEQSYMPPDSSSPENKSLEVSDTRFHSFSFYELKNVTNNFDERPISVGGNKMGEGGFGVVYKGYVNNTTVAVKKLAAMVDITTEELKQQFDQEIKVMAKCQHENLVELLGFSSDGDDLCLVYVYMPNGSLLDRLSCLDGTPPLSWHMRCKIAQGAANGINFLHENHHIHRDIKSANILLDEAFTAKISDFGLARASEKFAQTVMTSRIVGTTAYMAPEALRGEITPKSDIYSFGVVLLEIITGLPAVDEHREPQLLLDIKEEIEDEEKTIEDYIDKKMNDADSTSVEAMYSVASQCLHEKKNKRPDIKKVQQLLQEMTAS
Procedure, shortened: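 Reactions ran at 28° C after adding peptide and ATP, following a 10 min room-temperature enzyme-compound preincubation in HEPES pH 7.5/Brij-35 buffer; EDTA stop.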

[5] = Metabolic stability in rat liver microsomes; assay type: in vitro ADME, SD Rat; conditions: for half-life: SD rat liver microsomes, NADPH, 37° C., read-out: Rat microsome (t1/2)
Method: as §1

[6] = Pharmacokinetics study in ICR mice; assay type: in vivo; conditions: for clearance rate (in words) / half-life (in words) / oral absorption (in words) / oral exposure and bioavailability (in words): mice; for clearance rate (in words) / half-life (in words): administered intravenously; for oral absorption (in words) / oral exposure and bioavailability (in words): oral administration; for Vd / clearance / half-life / AUC / bioavailability / Cmax / Tmax: mouse, plasma, male ICR mice; for AUC: zero to 24 hours; for bioavailability: oral, p.o.: 10 mg/kg vs i.v.: 2 mg/kg
Method: Solution used:10% DMSO+10% Solutol+80% (20% Hp-β-CD)
Single dose pharmacokinetic parameters were determined at Medicilon using male ICR mice (3 […] per group, 2 groups). Groups were dosed i.v. (2 mg/kg) or p.o. (10 mg/kg) and blood samples were taken via submandibular or saphenous vein at the following time points post dosing: 0.083 (i.v. only), 0.25, 0.5, 1, 2, 4, 6 (p.o. only), 8 and 24 h. An aliquot of 50 μL of blood plasma was protein precipitated with 250 μL internal standard solution (200 ng/mL tolbutamide in MeOH), the mixture was vortex-mixed for 1 min and centrifuged at 14,000 rpm for 5 min. The concentration of the test compound in the plasma samples was determined using LC-MS/MS with the peak areas compared to a calibration curve determined using 5-5000 ng/mL test compound in ICR mice plasma. […] Cmax represents peak plasma concentration of the drug; Tmax represents the time to reach Cmax; T1/2 represents elimination half-life or the time taken for Cmax to drop in half; Cl represents clearance; Vd represents apparent volume of distribution; F represents bioavailability; p.o. represents oral administration; and i.v. represents intravenous injection.

[7] = target: T1, IRAK4; experiment: Kinase binding ability (KINOMEscan site-directed competition binding assay); conditions: for Kd: Kd between IRAK4 and compound
Method: The Equilibrium dissociation constant reflected the test compound's kinase binding (Kd). The KINOMEscan, a site-directed competition binding assay, was used to measure interactions between test compounds and specific kinases. The kinase-tagged T7 phage strains were derived from the BL21 strain's E. coli host. T7 phage was used to infect E. coli, which was then incubated until lysis occurred. The remaining kinases were produced in HEK-293 cells and tagged with DNA. To create affinity resins for kinase, streptavidin-coated magnetic beads were treated with biotinylated small molecule ligands. The assay consists of three components: a DNA-tagged kinase, an immobilized ligand, and the test compound. An immobilized ligand could compete with the compound binding the kinase active site. The affinity beads were washed with wash buffer and re-suspended in elution buffer following reactions in a polypropylene 384-well plate. qPCR of the kinase-DNA tag was used to assess the test compound's ability to bind with the selected kinase. The assay was carried out in accordance with the manufacturer's instructions (Eurofins DiscoverX Corporation).
Binding constants (Kd) were calculated with a standard dose-response curve using the Hill equation: […]

Row | Compound | metabolic stability in liver microsomes of human (in words) [1] | half-life [1] [h] | half-life [2] [h] | metabolic stability in liver microsomes of dog (in words) [2] | half-life [3] [h] | metabolic stability in liver microsomes of mouse (in words) [3] | activity, times better than that of the positive control compound CA4948 [4] | IC50 [4] [nM] | half-life [5] [h] | metabolic stability in liver microsomes of rat (in words) [5] | binding affinities to IRAK4 (in words) [7] | Kd [7] [nM] | other results
1 | COC1CCN(c2nc3nc(N4CCOCC4)oc3cc2C(=O)Nc2cccc(-c3cnn(C)c3)n2)CC1 [Compound A24, 5-(4-Methoxypiperidin-1-yl)-N-(6-(1-methyl-1H-pyrazol-4-yl)pyridin-2-yl)-2-morpholinooxazolo[4,5-b]pyridine-6-carboxamide] | good metabolism | 1.95 | 1.13 | moderate metabolic stability | 1.48 | good metabolism | more than 25 times | 4.1 | 1.27 | moderate metabolic stability | – | – | –
2 | Cn1cc(-c2cccc(NC(=O)c3cc4c(nc3N3CCC(O)CC3)OC(C)(C)C4)n2)cn1 [Compound B5, 6-(4-Hydroxypiperidin-1-yl)-2,2-dimethyl-N-(6-(1-methyl-1H-pyrazol-4-yl)pyridin-2-yl)-2,3-dihydrofuro[2,3-b]pyridine-5-carboxamide] | good metabolic stability | > 2.42 | > 2.42 | good metabolic stability | 1.18 | moderate metabolic stability | – | 7.6 | > 2.42 | good metabolic stability | high binding affinities | 0.69 | clearance rate (in words) [6]: low clearance rate; half-life (in words) [6]: good half-life; oral absorption (in words) [6]: well absorbed orally; oral exposure and bioavailability (in words) [6]: extremely high oral exposure and bioavailability; Vd ([6]; iv, i.v.: 2 mg/kg): 3.6 L/kg; clearance ([6]; iv, i.v.: 2 mg/kg): 13.6 mL/min/kg; half-life ([6]; iv, i.v.: 2 mg/kg): 3.1 h; AUC ([6]; iv, i.v.: 2 mg/kg): 2450 ng·h/mL; bioavailability [6]: 91%; Cmax ([6]; po, p.o.: 10 mg/kg): 1460 ng/mL; Tmax ([6]; po, p.o.: 10 mg/kg): 2 h; AUC ([6]; po, p.o.: 10 mg/kg): 9990 ng·h/mL
3 | Cn1cc(-c2cccc(NC(=O)c3cc4oc(N5CCOCC5)nc4nc3N3CC[C@@H](O)C3)n2)cn1 [Compound A1, (R)-5-(3-hydroxypyrrolidin-1-yl)-N-(6-(1-methyl-1H-pyrazol-4-yl)pyridin-2-yl)-2-morpholinooxazolo[4,5-b]pyridine-6-carboxamide] | good metabolic stability | > 2.42 | > 2.42 | good metabolic stability | > 2.42 | good metabolic stability | – | 405 | > 2.42 | good metabolic stability | high binding affinities | 29 | –
4 | Cn1cc(-c2cccc(NC(=O)c3cc4c(nc3OC3CC(C)(O)C3)OC(C)(C)C4)n2)cn1 (stereo not drawn) [Compound B35, 6-(3-Hydroxy-3-methylcyclobutoxy)-2,2-dimethyl-N-(6-(1-methyl-1H-pyrazol-4-yl)pyridin-2-yl)-2,3-dihydrofuro[2,3-b]pyridine-5-carboxamide] | – | – | – | – | – | – | more than 10 times | 6.8 | – | – | – | – | –

Now from value to molecule, other results behind:

Row | metabolic stability in liver microsomes of human (in words) [1] | half-life [1] [h] | half-life [2] [h] | metabolic stability in liver microsomes of dog (in words) [2] | half-life [3] [h] | metabolic stability in liver microsomes of mouse (in words) [3] | activity, times better than that of the positive control compound CA4948 [4] | IC50 [4] [nM] | half-life [5] [h] | metabolic stability in liver microsomes of rat (in words) [5] | binding affinities to IRAK4 (in words) [7] | Kd [7] [nM] | Compound | other results
5 | good metabolic stability | > 2.42 | 1.7 | good metabolic stability | > 2.42 | good metabolic stability | more than 10 times | 11 | 1.53 | good metabolic stability | high binding affinities | 0.59 | Cn1cc(-c2cccc(NC(=O)c3cc4oc(N5CCOCC5)nc4nc3N3CCC(O)CC3)n2)cn1 [Compound A4, 5-(4-hydroxypiperidin-1-yl)-N-(6-(1-methyl-1H-pyrazol-4-yl)pyridin-2-yl)-2-morpholinooxazolo[4,5-b]pyridine-6-carboxamide] | clearance rate (in words) [6]: low clearance rate; half-life (in words) [6]: good half-life; oral absorption (in words) [6]: well absorbed orally; oral exposure and bioavailability (in words) [6]: extremely high oral exposure and bioavailability; Vd ([6]; iv, i.v.: 2 mg/kg): 0.98 L/kg; clearance ([6]; iv, i.v.: 2 mg/kg): 8.1 mL/min/kg; half-life ([6]; iv, i.v.: 2 mg/kg): 1.4 h; AUC ([6]; iv, i.v.: 2 mg/kg): 4050 ng·h/mL; bioavailability [6]: 130%; Cmax ([6]; po, p.o.: 10 mg/kg): 8580 ng/mL; Tmax ([6]; po, p.o.: 10 mg/kg): 1.17 h; AUC ([6]; po, p.o.: 10 mg/kg): 26400 ng·h/mL
6 | – | – | – | – | – | – | – | 304 | – | – | – | – | Cn1cc(-c2cccc(NC(=O)c3cc4oc(N5CCOCC5)nc4nc3N3CCNCC3)n2)cn1 [Compound A13, N-(6-(1-Methyl-1H-pyrazol-4-yl)pyridin-2-yl)-2-morpholino-5-(piperazin-1-yl)oxazolo[4,5-b]pyridine-6-carboxamide] | –
7 | – | – | – | – | – | – | more than 25 times | 4.5 | – | – | – | – | COC1CCN(c2nc3c(cc2C(=O)Nc2cccc(-c4cnn(C)c4)n2)CC(C)(C)O3)CC1 [Compound B1, 6-(4-Methoxypiperidin-1-yl)-2,2-dimethyl-N-(6-(1-methyl-1H-pyrazol-4-yl)pyridin-2-yl)-2,3-dihydrofuro[2,3-b]pyridine-5-carboxamide] | –
8 | – | – | – | – | – | – | – | 9.2 | – | – | – | – | CCOc1nc2c(cc1C(=O)Nc1cccc(-c3cnn(C)c3)n1)CC(C)(C)O2 [Compound B12, 6-Ethoxy-2,2-dimethyl-N-(6-(1-methyl-1H-pyrazol-4-yl)pyridin-2-yl)-2,3-dihydrofuro[2,3-b]pyridine-5-carboxamide] | –
9 | – | – | – | – | – | – | – | 6.2 | – | – | – | – | CC(C)Oc1nc2c(cc1C(=O)Nc1cccc(-c3cnn(C)c3)n1)CC(C)(C)O2 [Compound B13, 6-Isopropoxy-2,2-dimethyl-N-(6-(1-methyl-1H-pyrazol-4-yl)pyridin-2-yl)-2,3-dihydrofuro[2,3-b]pyridine-5-carboxamide] | –
